Measured values reported in PubChem BioAssay AID330 (DTP/NCI, 2004).
Toxic doses and inconclusive results are not listed. The calls were made as follows: active = survival T/C of 150% or more; inactive = T/C below 125% in these data.

Tested on: P388 leukemia ip, CD2F1 mice, survival T/C
Experiment: NCI In Vivo Anticancer Drug Screen. Data for tumor model P388 Leukemia (intraperitoneal) in CD2F1 (CDF1) mice
Settings: endpoint: median survival time, higher = longer survival
How it was run: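 Mice carrying the transplanted tumor received test compound or vehicle. Survival was recorded in each group, and the value is the treated-group measurement divided by that of the vehicle-treated control group.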

Measured: T/C

CCCCCCC(=O)/C=C\c1ccccc1
inactive: dose: 25.0 mg/kg/injection, schedule: Q04DX002 (ip), vehicle: saline with Tween-80 95 % of control | dose: 50.0 mg/kg/injection, schedule: Q04DX002 (ip), vehicle: saline with Tween-80 100 % of control | dose: 100.0 mg/kg/injection, schedule: Q04DX002 (ip), vehicle: saline with Tween-80 97 % of control | dose: 200.0 mg/kg/injection, schedule: Q04DX002 (ip), vehicle: saline with Tween-80 106 % of control

C=Cn1c([N+](=O)[O-])cnc1/C=C/c1ccc(C#N)cc1
inactive: dose: 100.0 mg/kg/injection, schedule: Q01DX001 (ip), vehicle: Klucel (hydroxypropylcellulose) (HPC) 94 % of control | dose: 200.0 mg/kg/injection, schedule: Q01DX001 (ip), vehicle: Klucel (hydroxypropylcellulose) (HPC) 96 % of control | dose: 400.0 mg/kg/injection, schedule: Q01DX001 (ip), vehicle: Klucel (hydroxypropylcellulose) (HPC) 93 % of control

CCN(CC)CCNc1ccc(C)c2sc3ccc(N)cc3c(=O)c12
inactive: dose: 12.5 mg/kg/injection, schedule: Q01DX009 (ip), vehicle: saline with Tween-80 120 % of control | dose: 25.0 mg/kg/injection, schedule: Q01DX009 (ip), vehicle: saline with Tween-80 103 % of control | dose: 50.0 mg/kg/injection, schedule: Q01DX009 (ip), vehicle: saline with Tween-80 124 % of control | dose: 100.0 mg/kg/injection, schedule: Q01DX009 (ip), vehicle: saline with Tween-80 118 % of control
